Where “and” joins values, the source holds several entries; their conditions need not be identical. Equal entries are not always repeated.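 In this assay, cells in 96-well plates receive the compound at five concentrations for 48 hours. Endpoints are linearly interpolated between the surrounding concentrations. At the GI50, growth is halved. TGI denotes the concentration required for complete inhibition of growth.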
What was measured:
Assay in all cases: DTP human tumour cell line panel, 48 h
COLO 205 colon = system: COLO 205 colon
HT29 colon = system: HT29 colon
IGROV1 ovarian = system: IGROV1 ovarian
MALME-3M melanoma = system: MALME-3M melanoma
NCI-H226 lung = system: NCI-H226 lung
NCI-H23 lung = system: NCI-H23 lung
OVCAR-4 ovarian = system: OVCAR-4 ovarian
RXF 393 renal = system: RXF 393 renal
SK-MEL-28 melanoma = system: SK-MEL-28 melanoma
SNB-19 CNS = system: SNB-19 CNS

Row | Compound | TGI (COLO 205 colon) [µM] | TGI (HT29 colon) [µM] | TGI (IGROV1 ovarian) [µM] | TGI (MALME-3M melanoma) [µM] | TGI (NCI-H226 lung) [µM] | TGI (NCI-H23 lung) [µM] | TGI (OVCAR-4 ovarian) [µM] | TGI (RXF 393 renal) [µM] | TGI (SK-MEL-28 melanoma) | TGI (SNB-19 CNS) [µM] | GI50 (COLO 205 colon) | GI50 (HT29 colon) [µM] | GI50 (IGROV1 ovarian) [µM] | GI50 (MALME-3M melanoma) | GI50 (NCI-H226 lung) [µM] | GI50 (NCI-H23 lung) [µM] | GI50 (OVCAR-4 ovarian) [µM] | GI50 (RXF 393 renal) [µM] | GI50 (SK-MEL-28 melanoma) [µM] | GI50 (SNB-19 CNS)
1 | CC(=O)O/N=C/c1ncccc1CO | > 100 | > 100 | > 100 | > 100 | > 100 | > 100 | > 100 | > 100 | > 100 µM | > 100 |  |  |  |  |  |  |  |  |  | 
2 | COc1ccc(/C=C/c2cc(OC)c(OC)c(OC)c2)cc1NC(=O)/C=C/c1ccc(F)cc1 | 6.71 | 13.5 | > 100 | > 100 | 89 | > 100 | > 100 | 4.88 | > 100 µM | > 100 | 2.43 µM | 2.34 | 5.71 | 3.87 µM | 3.82 | 3.41 | 5.95 | 1.41 | 5.04 | 4.37 µM
3 | C=CC(=O)N1CCCC(n2nc(-c3ccc(Oc4ccccc4)cc3)c3c(N)ncnc32)C1 (stereo not given) | 28.5 | 21 | 14.6 | 29.3 | 19.3 | 28.7 | 21.2 | 11.4 | 25 µM | 22.3 | 14.1 µM | 5.93 | 0.643 | 12.4 µM | 3.97 | 12.1 | 7.12 | 2.68 | 12.3 | 9.14 µM
4 | Cc1ccc(C(=O)c2oc3ccc4c(C)cc(=O)oc4c3c2C)cc1 | > 100 | > 100 | > 100 | > 100 | > 100 | > 100 | 75.5 | 91 | > 100 µM | > 100 | 4.66 µM | 8.9 | 13.8 | 25.7 µM | 11.7 | 27.3 | 23.6 | 13.8 | 6.37 | 5.98 µM
5 | O=C1C(Br)=C[C@H]2C3C=CC(Br)(C3=O)[C@@H]12 (stereo not given in full) | 21.4 | 23.8 | 29.4 | 26.2 | 40.9 | 25 | 29.4 | 27.3 | 25.7 µM | 32.6 |  |  |  |  |  |  |  |  |  | 
6 | COc1cc(OC)c(/C=C/c2ccc3ccccc3[n+]2C)c(OC)c1 | 0.465 | 1.57 | 13.6 | 5.38 | 18.5 | 12.2 | 15.8 | 11.7 | 3.62 µM | 14.8 | 0.208 µM | 0.28 | 1.21 | 0.691 µM | 1.42 | 0.686 | 0.659 | 2.06 | 0.891 | 0.375 µM
7 | CN(C(=O)c1ccc(Cl)s1)C(=S)N(C)C(=O)c1ccc(Cl)s1 | > 10 | > 10 | > 10 | > 10 | > 10 | > 10 | > 10 | > 10 | > 10 µM | > 10 |  |  |  |  |  |  |  |  |  | 
8 | COc1ccc(-c2c(C3=NCCN3)nnn2-c2ccccc2)cc1 | > 100 | > 100 | > 100 | > 100 | > 100 | > 100 | > 100 | > 100 | > 100 µM | > 100 |  |  |  |  |  |  |  |  |  | 
9 | C=CCCCCCCCCCCCC1CCC(CC)N1 (stereo not given) | 14.7 | 14 | 25.9 | 31.4 | 49.1 | 28.6 | 21.3 | 16.5 | 29.6 µM | 36.3 |  |  |  |  |  |  |  |  |  | 
10 | CC(C)=CC(C(O)c1ccccc1)S(=O)(=O)c1nccn1C (stereo not given) | > 100 | > 100 | > 100 | > 100 | > 100 | > 100 | > 100 | > 100 | > 100 µM | > 100 |  |  |  |  |  |  |  |  |  | 
11 | CC(=O)NC(CCCCNC(=O)OCc1ccccc1)C(=O)NCc1ccccc1 (stereo not given) | > 100 | > 100 | > 100 | > 100 | > 100 | > 100 | > 100 | > 100 | > 100 µM | > 100 |  |  |  |  |  |  |  |  |  | 
12 | CCC(=O)c1cn(C)c(=O)c2ccccc12 | > 100 | > 100 | > 100 | > 100 | > 100 | > 100 | > 100 | > 100 | > 100 µM | > 100 |  |  |  |  |  |  |  |  |  | 
13 | COc1ccc(NC(=O)C2C(=O)N(c3ccc(OC)cc3)C(=O)/C2=N/O)cc1 (stereo not given) | > 100 | > 100 | > 80.7 | 42.9 | 55.7 | > 88.1 | 31.6 | 30.5 | > 96.8 µM | > 70.5 |  |  |  |  |  |  |  |  |  | 
14 | COc1ccc2c(c1)C(=O)CC(N)C2 (stereo not given) | > 100 | > 100 | > 100 | > 100 | > 100 | > 100 | > 100 | > 100 | > 100 µM | > 100 |  |  |  |  |  |  |  |  |  | 
15 | CC(=O)OCC1OC(n2c(-c3ccccc3)cc(-c3ccco3)c(C#N)c2=O)C(OC(C)=O)C(OC(C)=O)C1OC(C)=O (stereo not given) | > 100 | > 100 | > 100 | > 100 | > 100 | > 100 | > 100 | > 100 | 67 µM and > 100 µM | > 100 | > 31.6 µM and 87 µM |  |  | 23 µM and 85.9 µM |  |  |  |  |  | 90.5 µM and 36.3 µM
16 | Clc1nc(Oc2ccccc2)nc(-c2cn(-c3ccccc3)c3ccccc23)n1 | 24.6 | 11.5 | 6.26 | 4.82 | > 62.2 | 22.4 | 18.7 | 10.7 | 12.1 µM | 35.8 | 10.6 µM | 3.36 | 2.45 | 1.89 µM | 33.5 | 7.31 | 6.4 | 3.8 | 3.92 | 19 µM
17 | O=C(Nc1ccccc1C(F)(F)F)c1cccc(NC2=C(Cl)C(=O)N(Cc3ccccc3)C2=O)c1 | > 100 | > 100 | 18.8 | > 100 | 52.9 | 62.5 | > 100 | 12.3 | > 100 µM | > 100 | 39.4 µM | 65.6 | 0.985 | 42.6 µM | 15.4 | 19.2 | 45.1 | 3.13 | > 90.2 | 34 µM
18 | COc1cc2nc(-c3ccc(C(F)(F)F)cc3)cc(OCCCN3CCOCC3)c2cc1OC | 10.3 | 15.7 | 21.9 | 3.77 | 4.87 | 12 | 23.2 | 3.65 | 3.27 µM | 13.6 | 0.528 µM | 0.54 | 0.83 | 1.38 µM | 0.406 | 2.36 | 10.3 | 0.706 | 1.44 | 2.91 µM
19 | CC(C)c1ccc(Cc2cnc(NC(=O)c3cc(Br)cs3)s2)cc1 | 15 | > 100 | > 100 | > 100 | > 100 | > 100 | > 100 | 5.97 | > 100 µM | > 100 | 2.92 µM | 4.5 | 3.7 | 3.44 µM | 5.68 | 3.45 | 4.65 | 1.75 | 5.41 | 5.02 µM
20 | CCCCCCC/C=C/[C@H]1O[C@]23C(=O)C[C@@]4(C[C@@H](OC5OC(CO)C(O)C(O)C5O)C[C@@H]4[C@H]2C=C1C)OC3=O (stereo not given in full) | 17.8 | 11.9 | 26.7 | 9.87 | 13.4 | 15.8 | 8.07 | 9.15 | 10.3 µM | 10.2 | 7.1 µM | 4.18 | 5.67 | 4.82 µM | 5.85 | 5.75 | 3.37 | 4.41 | 5.05 | 5.25 µM
21 | COC(=O)c1c(-c2ccccc2)cc2c3cc(-c4ccccc4)c(C(=O)OC)n3c3ccccc3n12 | > 100 | > 100 | > 100 | > 100 | > 100 | > 100 | > 31.6 | > 94.7 | > 100 µM | > 100 |  |  |  |  |  |  |  |  |  | 
22 | O=c1oc2ccccc2c(O)c1/C=N\c1nc(-c2ccccc2)cs1 | 11.5 | 32 | 27.8 | 27.3 | 23 | 46.9 | > 100 | 26.9 | 31.1 µM | 62.4 |  |  |  |  |  |  |  |  |  | 
23 | O=c1cc(-c2ccccc2)[nH]c2cc(Cl)cc(Cl)c12 | > 100 | > 100 | > 100 | > 100 | > 100 | > 100 | 68.6 | 51.2 | > 100 µM |  |  |  |  |  |  |  |  |  |  | 
24 | CN1CC(c2ccccc2)N(CCCCN2CC(c3ccccc3)N(C)CC2c2ccccc2)CC1c1ccccc1 (stereo not given) | > 100 | > 100 | > 100 | 81.8 | > 100 |  | > 100 | 71.1 | > 100 µM | > 100 |  |  |  |  |  |  |  |  |  | 
25 | O=C(O)C1CCc2ccc3ccccc3c2C1c1cccc2ccccc12 (stereo not given) | 77.7 | 32.7 | 63.3 | 50.4 | 60 |  | 90.9 | 39.6 | 39.5 µM | 34.2 |  |  |  |  |  |  |  |  |  | 

Source: PubChem BioAssay (NCI)
